Assay results taken from patent publication US20170000133A1, “BENZOXABOROLE FUNGICIDES” (SYNGENTA PARTICIPATIONS AG, priority 2013, published 2017).

test system: Gaeumannomyces graminis; assay: Gaeumannomyces graminis / liquid culture (take-all of cereals); assay type: cell-based; conditions: PDB potato dextrose broth, 24° C., 4-5 days after application, read-out: disease control (inhibition of growth determined photometrically)
In short: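 Cryo-stored mycelial fragments in potato dextrose broth exposed to compound in DMSO at 200 ppm. Incubated at 24 °C; growth inhibition read photometrically 4–5 days after application.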

SMILES | inhibition at 200 ppm
C[Si](C)(C)/C=C/COC(=O)c1cc2c(cc1Cl)COB2O [Compound 216] | ≥ 80%
O=C(OCC1CCC1)c1cc2c(cc1Cl)COB2O [Compound 225] | ≥ 80%
CCCCCCCOC(=O)c1ccc2c(c1)B(O)OC2 [Compound 317] | ≥ 80%
CC#CCOC(=O)c1ccc2c(c1)B(O)OC2 [Compound 323] | ≥ 80%
COC(=O)C(OC(=O)c1ccc2c(c1)B(O)OC2)c1ccccc1 (centres unmarked) [Compound 349] | ≥ 80%
C[Si](C)(C)COC(=O)c1ccc2c(c1)B(O)OC2 [Compound 367] | ≥ 80%

test system: Thanatephorus cucumeris (Rhizoctonia solani); assay: Thanatephorus cucumeris (Rhizoctonia solani) / liquid culture (foot rot, damping-off); assay type: cell-based; conditions: PDB potato dextrose broth, 24° C., 3-4 days after application, read-out: disease control (inhibition of growth determined photometrically)
In short: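 Mycelial fragments from fresh liquid culture were suspended in potato dextrose broth and added to compound in DMSO at 200 ppm. After 3-4 days at 24 °C, growth inhibition was measured photometrically.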

SMILES | inhibition at 200 ppm
O=C(OCC1CCC1)c1cc2c(cc1Cl)COB2O [Compound 225] | ≥ 80%
CCCCCCCOC(=O)c1ccc2c(c1)B(O)OC2 [Compound 317] | ≥ 80%
CC#CCOC(=O)c1ccc2c(c1)B(O)OC2 [Compound 323] | ≥ 80%
C[Si](C)(C)COC(=O)c1ccc2c(c1)B(O)OC2 [Compound 367] | ≥ 80%

test system: Fusarium culmorum; assay: microbe, parasite or virus in culture; assay type: cell-based; conditions: read-out: disease control (inhibition of growth determined visually)

SMILES | inhibition at 200 ppm
CC#CCOC(=O)c1ccc2c(c1)B(O)OC2 [Compound 323] | ≥ 80%

test system: not given; assay: not given; conditions: not given

SMILES | melting point
O=C(OCC1CCC1)c1cc2c(cc1Cl)COB2O [Compound 225] | 115 to 117 °C
CC#CCOC(=O)c1ccc2c(c1)B(O)OC2 [Compound 323] | 154 to 155 °C

test system: Monographella nivalis (Microdochium nivale); assay: Monographella nivalis (Microdochium nivale) / liquid culture (foot rot cereals); assay type: cell-based; conditions: PDB potato dextrose broth, 24° C., 4-5 days after application, read-out: disease control (inhibition of growth determined photometrically)

SMILES | inhibition at 200 ppm
C[Si](C)(C)/C=C/COC(=O)c1cc2c(cc1Cl)COB2O [Compound 216] | ≥ 80%
O=C(OCC1CCC1)c1cc2c(cc1Cl)COB2O [Compound 225] | ≥ 80%
CCCCCCCOC(=O)c1ccc2c(c1)B(O)OC2 [Compound 317] | ≥ 80%
CC#CCOC(=O)c1ccc2c(c1)B(O)OC2 [Compound 323] | ≥ 80%
COC(=O)C(OC(=O)c1ccc2c(c1)B(O)OC2)c1ccccc1 (centres unmarked) [Compound 349] | ≥ 80%
C[Si](C)(C)COC(=O)c1ccc2c(c1)B(O)OC2 [Compound 367] | ≥ 80%

test system: Phytophthora infestans; assay: whole plant or invertebrate; assay type: in vivo; conditions: in Solanum lycopersicum, foliar, read-out: disease control

SMILES | pest or weed control at 200 ppm
CC#CCOC(=O)c1ccc2c(c1)B(O)OC2 [Compound 323] | ≥ 80%

test system: Mycosphaerella arachidis (Cercospora arachidicola); assay: Mycosphaerella arachidis (Cercospora arachidicola) / liquid culture (early leaf spot); assay type: cell-based; conditions: PDB potato dextrose broth, 24° C., 4-5 days after application, read-out: disease control (inhibition of growth determined photometrically)
In short: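 Conidia from cryogenic storage mixed into potato dextrose broth and added to compound at 200 ppm in DMSO. Incubation at 24° C.; growth inhibition read photometrically 4-5 days after application.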

SMILES | inhibition at 200 ppm
C[Si](C)(C)/C=C/COC(=O)c1cc2c(cc1Cl)COB2O [Compound 216] | ≥ 80%
O=C(OCC1CCC1)c1cc2c(cc1Cl)COB2O [Compound 225] | ≥ 80%
CCCCCCCOC(=O)c1ccc2c(c1)B(O)OC2 [Compound 317] | ≥ 80%
CC#CCOC(=O)c1ccc2c(c1)B(O)OC2 [Compound 323] | ≥ 80%

test system: Glomerella lagenarium (Colletotrichum lagenarium); assay: Glomerella lagenarium (Colletotrichum lagenarium) / liquid culture (anthracnose); assay type: cell-based; conditions: Colletotrichum orbiculare, PDB potato dextrose broth, 24° C., 3-4 days after application, read-out: disease control (inhibition of growth measured photometrically)
In short: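 Conidia of G. lagenarium from cryogenic storage were suspended in potato dextrose broth and added to test compound in DMSO at 200 ppm. Plates were incubated at 24° C, and growth inhibition was read photometrically 3-4 days after application.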

SMILES | inhibition at 200 ppm
O=C(OCC1CCC1)c1cc2c(cc1Cl)COB2O [Compound 225] | ≥ 80%
CCCCCCCOC(=O)c1ccc2c(c1)B(O)OC2 [Compound 317] | ≥ 80%
COC(=O)C(OC(=O)c1ccc2c(c1)B(O)OC2)c1ccccc1 (centres unmarked) [Compound 349] | ≥ 80%
C[Si](C)(C)COC(=O)c1ccc2c(c1)B(O)OC2 [Compound 367] | ≥ 80%

test system: Plasmopara viticola; assay: whole plant or invertebrate; assay type: in vivo; conditions: foliar, read-out: disease control

SMILES | pest or weed control at 200 ppm
CCCCCCCOC(=O)c1ccc2c(c1)B(O)OC2 [Compound 317] | ≥ 80%
CC#CCOC(=O)c1ccc2c(c1)B(O)OC2 [Compound 323] | ≥ 80%
COC(=O)C(OC(=O)c1ccc2c(c1)B(O)OC2)c1ccccc1 (centres unmarked) [Compound 349] | ≥ 80%
C[Si](C)(C)COC(=O)c1ccc2c(c1)B(O)OC2 [Compound 367] | ≥ 80%

test system: Botryotinia fuckeliana (Botrytis cinerea); assay: Botryotinia fuckeliana (Botrytis cinerea) / liquid culture (gray mould); assay type: cell-based; conditions: Vogels broth, 24° C., 3-4 days after application, read-out: disease control (inhibition of growth determined photometrically)
Procedure: 10. Botryotinia fuckeliana (Botrytis cinerea)/Liquid Culture (Gray Mould): Conidia of the fungus from cryogenic storage were directly mixed into nutrient broth (Vogels broth). After placing a DMSO solution of test compound into a 96-well microtiter plate at an application rate of 200 ppm, the nutrient broth containing the fungal spores was added. The test plates were incubated at 24° C. and the inhibition of growth was determined photometrically 3-4 days after application.

SMILES | inhibition at 200 ppm
C[Si](C)(C)/C=C/COC(=O)c1cc2c(cc1Cl)COB2O [Compound 216] | ≥ 80%
O=C(OCC1CCC1)c1cc2c(cc1Cl)COB2O [Compound 225] | ≥ 80%
CCCCCCCOC(=O)c1ccc2c(c1)B(O)OC2 [Compound 317] | ≥ 80%
CC#CCOC(=O)c1ccc2c(c1)B(O)OC2 [Compound 323] | ≥ 80%

test system: Puccinia recondita f. sp. tritici; assay: Puccinia recondita f. sp. tritici / wheat / leaf disc preventative (brown rust); assay type: in vivo; conditions: foliar, wheat leaf segments cv Kanzler, inoculated 1 day after application, assessed 7-9 days after application, read-out: disease control
Text: 3. Puccinia recondita f. sp. tritici/Wheat/Leaf Disc Preventative (Brown Rust): Wheat leaf segments cultivated variety (cv) Kanzler were placed on agar in 24-well plates and sprayed with formulated test compound diluted in water at an application rate of 200 ppm. The leaf disks were inoculated with a spore suspension of the fungus 1 day after application.

SMILES | pest or weed control at 200 ppm
O=C(OCC1CCC1)c1cc2c(cc1Cl)COB2O [Compound 225] | ≥ 80%
CCCCCCCOC(=O)c1ccc2c(c1)B(O)OC2 [Compound 317] | ≥ 80%
COC(=O)C(OC(=O)c1ccc2c(c1)B(O)OC2)c1ccccc1 (centres unmarked) [Compound 349] | ≥ 80%
C[Si](C)(C)COC(=O)c1ccc2c(c1)B(O)OC2 [Compound 367] | ≥ 80%

test system: Pythium ultimum; assay: Pythium ultimum / liquid culture (seedling damping off); assay type: cell-based; conditions: Globisporangium ultimum; 200 ppm; potato dextrose broth, 24° C., 2-3 days after application; read-out: disease control (inhibition of growth determined photometrically)

SMILES | inhibition at 200 ppm
O=C(OCC1CCC1)c1cc2c(cc1Cl)COB2O [Compound 225] | ≥ 80%
CCCCCCCOC(=O)c1ccc2c(c1)B(O)OC2 [Compound 317] | ≥ 80%
CC#CCOC(=O)c1ccc2c(c1)B(O)OC2 [Compound 323] | ≥ 80%
COC(=O)C(OC(=O)c1ccc2c(c1)B(O)OC2)c1ccccc1 (centres unmarked) [Compound 349] | ≥ 80%
C[Si](C)(C)COC(=O)c1ccc2c(c1)B(O)OC2 [Compound 367] | ≥ 80%

test system: Mycosphaerella graminicola (Septoria tritici); assay: Mycosphaerella graminicola (Septoria tritici) / liquid culture (Septoria blotch); assay type: cell-based; conditions: Zymoseptoria tritici, PDB potato dextrose broth, 24° C., 4-5 days after application, read-out: disease control (inhibition of growth determined photometrically)
In short: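 Conidia from cryostorage were suspended in potato dextrose broth and added to test compound in DMSO at 200 ppm in microtiter wells. Plates were incubated at 24° C and growth inhibition measured photometrically 4-5 days after application.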

SMILES | inhibition at 200 ppm
C[Si](C)(C)/C=C/COC(=O)c1cc2c(cc1Cl)COB2O [Compound 216] | ≥ 80%
O=C(OCC1CCC1)c1cc2c(cc1Cl)COB2O [Compound 225] | ≥ 80%
CCCCCCCOC(=O)c1ccc2c(c1)B(O)OC2 [Compound 317] | ≥ 80%
CC#CCOC(=O)c1ccc2c(c1)B(O)OC2 [Compound 323] | ≥ 80%
C[Si](C)(C)COC(=O)c1ccc2c(c1)B(O)OC2 [Compound 367] | ≥ 80%
